From patent publication US20090317376A1, “Compositions And Methods For Lipo Modeling” (Georgetown University MEDICAL SCHOOL, priority 2005, published 2009)
Entries after “also recorded” stand apart in the source; their conditions may differ.

System: abdominal fat pad
Experiment: Local NPY or Y2R antagonist treatment of the abdominal fat pad (ob/ob, WT, eNOS−/− mice)
Type: in vivo
Conditions: for capillary density / density of von Willebrand factor positive microvessels in abdominal fat: Y2R antagonist intra-fat vs vehicle; for fat in the region of the pellet (MRI thresholded for fat): compared to Placebo pellets, FIG. 9; for adipocyte number and size, Y2R staining in subcutaneous abdominal fat pad (immunohistochemistry): FIG. 10
Procedure: Eight week old ob/ob mice are used to study the growth of adipose tissue when treated with growth factor NPY versus antagonist. Whether the Y2R antagonist causes regression of fat deposits is determined using an antagonist in older 3-6 month old ob/ob mice. […] Fat pads (subcutaneous abdominal, omental, subcutaneous, sternal, and interscapular) are harvested and examined to determine whether there is hyperplasia, hypertrophy, or apoptosis of the fat cells. Whether NPY-mediated angiogenesis is involved in adipose tissue growth is determined. The anti-angiogenic effects and consequences of Y2R antagonist on adipose tissue growth is determined by subcutaneous injections of Y2R antagonist BIIE0246 (0.2 ml, 1 μM, daily/14 days) periabdominally into the abdominal fat pad or subcutaneous implantation of a slow-release pellet containing BIE0246 (10 μg/14 days) followed by an evaluation of the fat deposits by MRI. These fat pads are then harvested, weighed, and stained for endothelial markers and NPYRs. Fat pads are further characterized by RT-PCR, quantitative real-time PCR, and ELISA.
NPY slow-release pellets (1 μg/14 days) are inserted subcutaneously into the abdominal fat pad of ob/ob, C57BL/6 and SV129 WT mice. […] NPY pellets are also inserted into eNOS^−/− -mice. […] Specific peptide Y2R antagonist, BIIE0246, is subcutaneously injected periabdominally (0.2 ml, 1 μM, daily/14 days) or is given in the form of a slow release pellet (10 μg/14 days). […] Changes in visceral fat are visualized by MRI and quantified by volumetric calculations (FIG. 9). Fat pad weight is also measured upon euthanasia of the mice (FIG. 8).
In vivo treatment of murine model of obesity with antagonist: 6-week-old mice from four murine strains: C57BL-6, ob/ob, SV129, and eNOS^−/− are used. The mice are separated into treatment groups to compare the effects of diet, stress, NPY and specific receptor antagonists. The mice are weighed every other day during the course of the treatment. Control groups for the transgenic mice are matched by background strain, age, and gender. WT C57BL/6 mice (a background strain predisposed to weight gain [64]) is fed a “comfort food diet” consisting of lard and sugar and subjected to cold stress (1 hour in a cage with 1 cm of ice and water at the base of the cage). NPY is delivered locally by the implantation of a NPY slow-release pellet ([…]) into the abdominal fat pad. NPY receptor antagonists or antisense ODN is delivered by rotating daily subcutaneous injections (0.2 ml, 1 μM, daily/14 days) in the abdominal region. 20-mer phosphorothioate oligonucleotide antisense, targeted forward from rat Y2-gene transcription initiation codon (5-[…]-3′) (Molecular Research Laboratories, Herndon, Va.) is used. The scrambled antisense sequence contains some modified deoxynucleotides in a random order (5′-[…]-3′).
Tissue sample collection and processing: After treatment, fat pads are harvested from: 1) subcutaneous abdominal, 2) intra-abdominal (omental), 3) inguinal, 4) interscapular. The total central fat (abdominal region only) weight (FW) and FW to percent of body weight (F/B) is measured. The adipose tissue is processed for paraffin embedding and sections, […], are collected on glass slides for immunohistochemistry. 50 mg of tissue is used for quantitative real-time RT-PCR.
Magnetic Resonance Imaging (MRI): A Brukker 7-Tesla small-animal magnetic resonance imager coil is used to visualize and noninvasively quantitate various fat depots. A 3-dimensional (3D) T2-weighted (T2W) imaging protocol optimized for high contrast fat-imaging is implemented. […] Quantification of the total body fat as well as separate specific fat depots is calculated using thresholding and voxel count plugins from NIH image J software. VolumeJ is used to render, in a 3D image, the various fat depots.

[1] = 8-week old ob/ob mice, s.c. 0.2 ml, 1 μM, daily/14 days or pellet 10 μg/14 days, vs saline/PLC
[2] = BIIE0246 1 μM/day s.c. into the abdominal pads, within 2-weeks
[3] = NPY 1 μg/14 day-pellet, both obese and lean mice
[4] = NPY slow-release pellet 1 μg/14 days vs placebo, ob/ob, C57BL/6 and SV129 WT mice

For N=C(N)NCCC[C@H](NC(=O)CC1(CC(=O)N2CCN(C3c4ccccc4NC(=O)c4ccccc43)CC2)CCCC1)C(=O)NCCn1c(=O)n(-c2ccccc2)n(-c2ccccc2)c1=O (some centres unmarked) [BIIE0246], the “decrease in F/B” value [1] was 40%, the “decrease in FW” value [1] was 40% and the “decrease of abdominal pad volume” value [2] was 50%. The “decrease of abdominal pad weight” value [2] was 50%, the “capillary density / density of von Willebrand factor positive microvessels in abdominal fat” value (listed as Y2R antagonist) was “decreased the density of von Willebrand-positive microvessels” and the “capillary density / density of von Willebrand factor positive microvessels in abdominal fat” value (listed as Y2R-antagonist) was “significant decrease in capillary density”. The “fat in the region of the pellet (MRI thresholded for fat)” value was “decreased fat”, the “TUNEL-positive staining of endothelial cells and adipocytes” value (intra-fat injections of Y2R antagonist) was “increasing TUNEL-positive staining” and the “adipocyte number and size, Y2R staining in subcutaneous abdominal fat pad (immunohistochemistry)” value (ob/ob mice) was “fewer but larger adipocytes and fewer Y2Rs”.
With neuropeptide Y [NPY] the “subcutaneous abdominal adipose tissue volume (MRI)” value [3] was “significantly increased”, the “subcutaneous abdominal adipose tissue weight (g)” value [3] was “significantly increased” and the “WAT cellularity, proliferation of small adipocytes” value (NPY in WT mice) was “mimicked”. The “FW to body weight ratio (F/B)” value (NPY pellet, eNOS−/− mice) was “no significant weight gain”, the “total central fat weight (FW) / fat pad weight” value (NPY pellet, eNOS−/− mice) was “no significant weight gain” and the “FW to body weight ratio (F/B)” value [4] was “significant increase”. The “total central fat weight (FW) / fat pad weight” value [4] was “significant increase; also recorded: Increase of fat pad weight”, the “fat in the region of the pellet (MRI thresholded for fat)” value was “increased fat” and the “adipogenic activity in eNOS−/− mice” value (mice deficient in endothelial nitric oxide synthase) was “resistant to NPY's adipogenic activity”. For the same compound, the visceral fat (ob/ob mice, NPY, FIG. 8) was “increases visceral fat” and the “adipocyte number and size, Y2R staining in subcutaneous abdominal fat pad (immunohistochemistry)” value (ob/ob mice) was “greater number of smaller adipocytes”.
